From patent US8933230B2, “Phosphorus-containing group-substituted quinoline, its preparation process, medical composition containing the compounds and application” (priority 2011, dated 2015)

What was measured:
Test in all cases: KinomeScan kinase panel
Assay type in all cases: binding
[1] = biological target: T1, MINK (Homo sapiens, UniProt Q8N4C8)
T1 construct: purchased DiscoveRx Corporation (KinomeScan)
Summary of the method: (§1)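 The compound was profiled across a 442-kinase KinomeScan binding panel at a fixed concentration of 1000 nM; values reflect inhibitory effect at that one dose.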

[2] = biological target: T2, CHEK2 (Homo sapiens, UniProt O96017)
T2 construct: purchased DiscoveRx Corporation (KinomeScan)
Summary of the method: as §1

[3] = biological target: T3, ADCK4 (Homo sapiens, UniProt Q96D53)
T3 construct: purchased DiscoveRx Corporation (KinomeScan)
Summary of the method: as §1

[4] = biological target: T4, PIK3C2B (Homo sapiens, UniProt O00750)
T4 construct: purchased DiscoveRx Corporation (KinomeScan)
Summary of the method: as §1

[5] = biological target: T5, RPS6KA4(kin.Dom.1-N-termimal) (Homo sapiens, UniProt O75676)
T5 construct: kin.Dom.1; purchased DiscoveRx Corporation
Summary of the method: as §1

[6] = biological target: T6, MST4 (Homo sapiens, UniProt Q9P289)
T6 construct: purchased DiscoveRx Corporation (KinomeScan)
Summary of the method: as §1

[7] = biological target: T7, MEK1 (Homo sapiens, UniProt Q02750)
T7 construct: purchased DiscoveRx Corporation (KinomeScan)
Summary of the method: as §1

[8] = biological target: T8, PRKG2 (Homo sapiens, UniProt Q13237)
T8 construct: purchased DiscoveRx Corporation (KinomeScan)
Summary of the method: as §1

[9] = biological target: T9, ABL1(M351T)-phosphorylated (Homo sapiens, UniProt P00519, M351T)
T9 construct: purchased DiscoveRx Corporation (KinomeScan)
Summary of the method: as §1

[10] = biological target: T10, FLT3(D835Y) (Homo sapiens, UniProt P36888, D835Y)
T10 construct: purchased DiscoveRx Corporation (KinomeScan)
Summary of the method: as §1

[11] = biological target: T11, PIP5K1A (Homo sapiens, UniProt Q99755)
T11 construct: purchased DiscoveRx Corporation (KinomeScan)
Summary of the method: as §1

[12] = biological target: T12, CIT (Homo sapiens, UniProt O14578)
T12 construct: purchased DiscoveRx Corporation (KinomeScan)
Summary of the method: as §1

[13] = biological target: T13, PIM2 (Homo sapiens, UniProt Q9P1W9)
T13 construct: purchased DiscoveRx Corporation (KinomeScan)
Summary of the method: as §1

[14] = biological target: T14, RSK1(Kin.Dom.1-N-terminal) (Homo sapiens, UniProt Q15418)
T14 construct: Kin.Dom.1; purchased DiscoveRx Corporation
Summary of the method: as §1

[15] = biological target: T15, EGFR(L747-S752del,P753S) (Homo sapiens, UniProt P00533, DEL747-752/P753S)
T15 construct: purchased DiscoveRx Corporation (KinomeScan)
Summary of the method: as §1

[16] = biological target: T16, ITK (Homo sapiens, UniProt Q08881)
T16 construct: purchased DiscoveRx Corporation (KinomeScan)
Summary of the method: as §1

[17] = biological target: T17, IKK-epsilon (Homo sapiens, UniProt Q14164)
T17 construct: purchased DiscoveRx Corporation (KinomeScan)
Summary of the method: as §1

[18] = biological target: T18, RIOK3 (Homo sapiens, UniProt O14730)
T18 construct: purchased DiscoveRx Corporation
Summary of the method: as §1

[19] = biological target: T19, ERK8 (Homo sapiens, UniProt Q8TD08)
T19 construct: purchased DiscoveRx Corporation (KinomeScan)
Summary of the method: as §1

[20] = biological target: T20, P38-delta (Homo sapiens, UniProt O15264)
T20 construct: purchased DiscoveRx Corporation (KinomeScan panel)
Summary of the method: as §1

[21] = biological target: T21, ERK5 (Homo sapiens, UniProt Q13164)
T21 construct: purchased DiscoveRx Corporation (KinomeScan)
Summary of the method: as §1

[22] = biological target: T22, PDGFRA (Homo sapiens, UniProt P16234)
T22 construct: purchased DiscoveRx Corporation (KinomeScan panel)
Summary of the method: as §1

[23] = biological target: T23, DDR1 (Homo sapiens, UniProt Q08345)
T23 construct: purchased DiscoveRx Corporation (KinomeScan)
Summary of the method: as §1

[24] = biological target: T24, JNK3 (Homo sapiens, UniProt P53779)
T24 construct: purchased DiscoveRx Corporation (KinomeScan)
Summary of the method: as §1

[25] = biological target: T25, YSK1 (Homo sapiens, UniProt O00506)
T25 construct: purchased DiscoveRx Corporation (KinomeScan service)
Summary of the method: as §1

[26] = biological target: T26, TAOK2 (Homo sapiens, UniProt Q9UL54)
T26 construct: purchased DiscoveRx Corporation (KinomeScan)
Summary of the method: as §1

[27] = biological target: T27, DMPK2 (Homo sapiens, UniProt Q6DT37)
T27 construct: purchased DiscoveRx Corporation (KinomeScan)
Summary of the method: as §1

[28] = biological target: T28, MAST1 (Homo sapiens, UniProt Q9Y2H9)
T28 construct: purchased DiscoveRx Corporation (KinomeScan)
Summary of the method: as §1

[29] = biological target: T29, FGR (Homo sapiens, UniProt P09769)
T29 construct: purchased DiscoveRx Corporation (KinomeScan)
Summary of the method: as §1

[30] = biological target: T30, RSK3(Kin.Dom.1-N-terminal) (Homo sapiens, UniProt Q15349)
T30 construct: Kin.Dom.1; purchased DiscoveRx Corporation (KinomeScan)
Summary of the method: as §1

[31] = biological target: T31, MST1R (Homo sapiens, UniProt Q04912)
T31 construct: purchased DiscoveRx Corporation (KinomeScan)
Summary of the method: as §1

[32] = biological target: T32, MARK3 (Homo sapiens, UniProt P27448)
T32 construct: purchased DiscoveRx Corporation (KinomeScan)
Summary of the method: as §1

[33] = biological target: T33, TGFBR2 (Homo sapiens, UniProt P37173)
T33 construct: purchased DiscoveRx Corporation (KinomeScan)
Summary of the method: as §1

[34] = biological target: T34, CAMK1D (Homo sapiens, UniProt Q8IU85)
T34 construct: purchased DiscoveRx Corporation (KinomeScan)
Summary of the method: as §1

T3 sequence (Q96D53 whole entry): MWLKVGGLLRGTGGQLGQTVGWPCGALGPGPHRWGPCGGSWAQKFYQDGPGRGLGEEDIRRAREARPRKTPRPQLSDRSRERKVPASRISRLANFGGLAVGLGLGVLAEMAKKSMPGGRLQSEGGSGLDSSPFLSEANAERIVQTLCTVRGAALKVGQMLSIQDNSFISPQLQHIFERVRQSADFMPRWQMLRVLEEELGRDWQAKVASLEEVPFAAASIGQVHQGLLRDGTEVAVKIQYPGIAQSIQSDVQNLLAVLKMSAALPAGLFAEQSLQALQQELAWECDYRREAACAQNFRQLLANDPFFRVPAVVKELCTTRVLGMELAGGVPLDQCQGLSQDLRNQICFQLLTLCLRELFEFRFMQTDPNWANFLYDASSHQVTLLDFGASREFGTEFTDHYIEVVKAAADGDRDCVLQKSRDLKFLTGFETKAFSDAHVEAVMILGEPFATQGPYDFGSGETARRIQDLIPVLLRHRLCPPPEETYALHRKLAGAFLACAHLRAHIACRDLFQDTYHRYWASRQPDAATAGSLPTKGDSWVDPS
T22 sequence (P16234 24-1089): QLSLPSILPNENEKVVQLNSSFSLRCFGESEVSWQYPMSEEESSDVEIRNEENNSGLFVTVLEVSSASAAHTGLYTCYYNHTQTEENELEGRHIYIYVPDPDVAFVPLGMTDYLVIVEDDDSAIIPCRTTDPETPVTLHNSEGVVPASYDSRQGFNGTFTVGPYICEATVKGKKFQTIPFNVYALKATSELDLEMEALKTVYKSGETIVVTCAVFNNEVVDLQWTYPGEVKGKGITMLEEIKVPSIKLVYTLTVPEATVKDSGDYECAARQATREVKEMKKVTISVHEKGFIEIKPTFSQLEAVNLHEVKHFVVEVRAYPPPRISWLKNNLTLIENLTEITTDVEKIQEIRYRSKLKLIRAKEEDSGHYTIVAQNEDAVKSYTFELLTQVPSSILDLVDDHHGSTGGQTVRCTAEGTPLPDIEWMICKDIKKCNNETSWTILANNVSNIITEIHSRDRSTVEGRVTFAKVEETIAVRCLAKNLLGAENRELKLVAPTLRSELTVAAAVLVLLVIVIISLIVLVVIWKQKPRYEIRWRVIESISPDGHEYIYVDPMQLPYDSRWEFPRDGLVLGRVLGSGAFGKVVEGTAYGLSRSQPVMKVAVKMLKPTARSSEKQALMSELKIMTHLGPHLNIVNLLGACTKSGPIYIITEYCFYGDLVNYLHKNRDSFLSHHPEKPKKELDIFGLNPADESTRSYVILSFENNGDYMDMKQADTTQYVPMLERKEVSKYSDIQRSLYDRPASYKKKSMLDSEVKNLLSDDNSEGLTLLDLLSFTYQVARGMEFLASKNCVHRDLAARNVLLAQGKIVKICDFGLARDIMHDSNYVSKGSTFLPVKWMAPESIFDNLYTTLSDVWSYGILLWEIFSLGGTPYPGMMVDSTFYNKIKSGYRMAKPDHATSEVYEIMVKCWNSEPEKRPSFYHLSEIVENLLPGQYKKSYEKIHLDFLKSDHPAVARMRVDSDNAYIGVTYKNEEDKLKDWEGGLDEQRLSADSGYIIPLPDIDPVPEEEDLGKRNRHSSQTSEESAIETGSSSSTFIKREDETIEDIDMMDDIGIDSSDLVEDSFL
T12 sequence (O14578 whole entry): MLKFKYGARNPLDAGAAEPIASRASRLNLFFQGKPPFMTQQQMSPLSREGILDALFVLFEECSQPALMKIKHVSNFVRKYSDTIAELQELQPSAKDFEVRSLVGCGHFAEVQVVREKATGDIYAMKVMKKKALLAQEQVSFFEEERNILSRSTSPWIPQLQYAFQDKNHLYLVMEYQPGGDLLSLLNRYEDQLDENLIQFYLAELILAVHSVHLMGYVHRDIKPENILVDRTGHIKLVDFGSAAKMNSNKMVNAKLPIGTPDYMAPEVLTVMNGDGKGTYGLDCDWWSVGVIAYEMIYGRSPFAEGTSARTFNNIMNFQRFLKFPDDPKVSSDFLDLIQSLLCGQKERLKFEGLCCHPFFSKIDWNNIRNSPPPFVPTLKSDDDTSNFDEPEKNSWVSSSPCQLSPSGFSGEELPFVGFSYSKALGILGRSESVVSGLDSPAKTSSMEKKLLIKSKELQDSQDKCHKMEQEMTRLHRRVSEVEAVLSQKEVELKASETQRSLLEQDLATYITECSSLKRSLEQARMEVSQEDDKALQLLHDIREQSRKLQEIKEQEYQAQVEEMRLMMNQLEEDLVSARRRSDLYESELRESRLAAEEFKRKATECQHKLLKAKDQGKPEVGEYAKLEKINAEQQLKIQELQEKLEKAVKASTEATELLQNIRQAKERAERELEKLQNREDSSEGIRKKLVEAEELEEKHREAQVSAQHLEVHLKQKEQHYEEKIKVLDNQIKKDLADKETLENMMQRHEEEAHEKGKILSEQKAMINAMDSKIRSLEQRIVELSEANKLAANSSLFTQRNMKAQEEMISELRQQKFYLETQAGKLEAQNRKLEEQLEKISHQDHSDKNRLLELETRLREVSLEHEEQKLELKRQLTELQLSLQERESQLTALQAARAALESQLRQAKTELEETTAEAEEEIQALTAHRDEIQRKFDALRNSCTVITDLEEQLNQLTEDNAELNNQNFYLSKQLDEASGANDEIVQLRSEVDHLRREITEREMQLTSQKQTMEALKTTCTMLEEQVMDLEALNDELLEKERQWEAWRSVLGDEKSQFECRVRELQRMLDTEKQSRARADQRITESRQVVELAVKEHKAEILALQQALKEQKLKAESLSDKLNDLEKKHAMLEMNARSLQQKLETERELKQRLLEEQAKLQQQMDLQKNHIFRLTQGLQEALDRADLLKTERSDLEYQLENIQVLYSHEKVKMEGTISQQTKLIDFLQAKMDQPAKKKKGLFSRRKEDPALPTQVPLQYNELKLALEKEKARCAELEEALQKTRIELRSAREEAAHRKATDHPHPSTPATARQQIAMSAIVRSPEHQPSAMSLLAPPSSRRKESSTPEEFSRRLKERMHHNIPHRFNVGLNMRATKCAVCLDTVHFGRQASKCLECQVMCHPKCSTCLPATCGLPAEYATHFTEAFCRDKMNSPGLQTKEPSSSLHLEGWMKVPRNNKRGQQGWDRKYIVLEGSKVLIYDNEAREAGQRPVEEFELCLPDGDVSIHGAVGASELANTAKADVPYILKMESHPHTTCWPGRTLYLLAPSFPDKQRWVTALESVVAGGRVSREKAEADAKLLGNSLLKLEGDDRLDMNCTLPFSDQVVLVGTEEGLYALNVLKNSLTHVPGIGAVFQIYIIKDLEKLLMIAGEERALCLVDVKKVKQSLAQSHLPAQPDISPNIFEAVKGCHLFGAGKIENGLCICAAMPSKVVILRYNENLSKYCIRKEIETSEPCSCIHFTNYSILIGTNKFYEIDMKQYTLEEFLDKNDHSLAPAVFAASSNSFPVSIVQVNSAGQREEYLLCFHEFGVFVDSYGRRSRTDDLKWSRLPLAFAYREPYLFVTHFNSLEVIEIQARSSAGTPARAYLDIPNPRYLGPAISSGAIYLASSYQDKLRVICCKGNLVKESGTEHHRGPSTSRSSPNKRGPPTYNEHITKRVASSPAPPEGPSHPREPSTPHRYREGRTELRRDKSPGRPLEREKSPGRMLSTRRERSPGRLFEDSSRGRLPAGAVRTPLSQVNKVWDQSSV
T6 sequence (Q9P289 whole entry): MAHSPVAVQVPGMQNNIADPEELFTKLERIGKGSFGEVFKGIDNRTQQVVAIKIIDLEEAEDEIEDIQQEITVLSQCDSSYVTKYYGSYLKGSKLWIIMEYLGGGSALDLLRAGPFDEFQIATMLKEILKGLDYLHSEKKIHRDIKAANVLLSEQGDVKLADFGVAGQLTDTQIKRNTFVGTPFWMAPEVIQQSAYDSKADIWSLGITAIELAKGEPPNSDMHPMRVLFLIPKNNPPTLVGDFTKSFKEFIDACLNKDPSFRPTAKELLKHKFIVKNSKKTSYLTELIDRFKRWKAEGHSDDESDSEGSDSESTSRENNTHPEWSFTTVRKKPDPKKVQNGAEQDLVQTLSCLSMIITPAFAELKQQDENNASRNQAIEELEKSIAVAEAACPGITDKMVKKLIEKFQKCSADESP
T21 sequence (Q13164 whole entry): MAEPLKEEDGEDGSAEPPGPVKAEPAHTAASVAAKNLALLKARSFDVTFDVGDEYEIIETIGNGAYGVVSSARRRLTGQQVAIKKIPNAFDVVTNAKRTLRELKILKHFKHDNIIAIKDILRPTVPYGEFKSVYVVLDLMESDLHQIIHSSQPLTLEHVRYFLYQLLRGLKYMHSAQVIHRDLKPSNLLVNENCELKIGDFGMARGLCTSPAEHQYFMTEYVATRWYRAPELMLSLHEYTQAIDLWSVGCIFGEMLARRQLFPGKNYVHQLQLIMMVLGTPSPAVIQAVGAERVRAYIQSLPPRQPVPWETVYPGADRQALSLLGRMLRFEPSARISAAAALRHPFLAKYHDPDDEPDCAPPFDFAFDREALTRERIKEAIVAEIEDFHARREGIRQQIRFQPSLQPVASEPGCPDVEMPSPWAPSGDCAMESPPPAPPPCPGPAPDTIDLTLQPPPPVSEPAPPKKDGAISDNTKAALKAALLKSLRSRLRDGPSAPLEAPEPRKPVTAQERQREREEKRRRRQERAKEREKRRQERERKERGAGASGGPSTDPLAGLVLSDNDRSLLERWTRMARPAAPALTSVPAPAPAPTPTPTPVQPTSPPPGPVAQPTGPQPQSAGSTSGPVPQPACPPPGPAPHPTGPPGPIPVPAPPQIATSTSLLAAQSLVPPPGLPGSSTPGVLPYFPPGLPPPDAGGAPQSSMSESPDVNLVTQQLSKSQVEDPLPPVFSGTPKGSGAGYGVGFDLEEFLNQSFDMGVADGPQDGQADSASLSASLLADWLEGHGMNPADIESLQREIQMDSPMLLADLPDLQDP

CCOP(=O)(CN1CCC(COc2cc3nccc(Oc4ccc(NC(=O)C5(C(=O)Nc6ccc(F)cc6)CC5)cc4F)c3cc2OC)CC1)OCC [Example 10, N1-[4-[[7-[[1-(diethoxyphosphorylmethyl)-4-piperidinyl]methoxyl]-6-methoxyl-4-quinolyl]oxyl]-3-fluorophenyl]-N1′-(4-fluorophenyl)cyclopropane-1,1-dicarboxamide]
% Ctrl@1000 nM [1]: 100 % Ctrl
% Ctrl@1000 nM [2]: 35 % Ctrl
% Ctrl@1000 nM [3]: 100 % Ctrl
% Ctrl@1000 nM [4]: 100 % Ctrl
% Ctrl@1000 nM [5]: 76 % Ctrl
% Ctrl@1000 nM [6]: 80 % Ctrl
% Ctrl@1000 nM [7]: 24 % Ctrl
% Ctrl@1000 nM [8]: 100 % Ctrl
% Ctrl@1000 nM [9]: 42 % Ctrl
% Ctrl@1000 nM [10]: 2.4 % Ctrl
% Ctrl@1000 nM [11]: 100 % Ctrl
% Ctrl@1000 nM [12]: 100 % Ctrl
% Ctrl@1000 nM [13]: 67 % Ctrl
% Ctrl@1000 nM [14]: 59 % Ctrl
% Ctrl@1000 nM [15]: 67 % Ctrl
% Ctrl@1000 nM [16]: 34 % Ctrl
% Ctrl@1000 nM [17]: 94 % Ctrl
% Ctrl@1000 nM [18]: 100 % Ctrl
% Ctrl@1000 nM [19]: 95 % Ctrl
% Ctrl@1000 nM [20]: 53 % Ctrl
% Ctrl@1000 nM [21]: 100 % Ctrl
% Ctrl@1000 nM [22]: 1.8 % Ctrl
% Ctrl@1000 nM [23]: 0 % Ctrl
% Ctrl@1000 nM [24]: 95 % Ctrl
% Ctrl@1000 nM [25]: 57 % Ctrl
% Ctrl@1000 nM [26]: 70 % Ctrl
% Ctrl@1000 nM [27]: 76 % Ctrl
% Ctrl@1000 nM [28]: 100 % Ctrl
% Ctrl@1000 nM [29]: 35 % Ctrl
% Ctrl@1000 nM [30]: 100 % Ctrl
% Ctrl@1000 nM [31]: 4 % Ctrl
% Ctrl@1000 nM [32]: 100 % Ctrl
% Ctrl@1000 nM [33]: 100 % Ctrl
% Ctrl@1000 nM [34]: 96 % Ctrl
